Converted amounts (≈) assume the structure as drawn.
Assays:
A Terreus 49 = experiment: MIC, YAG medium, A Terreus 49; assay type: cell-based, Aspergillus terreus; conditions: Aspergillus terreus; YAG medium; read-out: MIC A Terreus 49
Procedure, shortened: (§1)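 OD at 485 nm versus drug-free control defines MIC (mg/L): >80% inhibition for Candida albicans in RPMI/2% glucose/MOPS pH7.0 after 24-48 hrs at 35° C, >70% for Aspergillus strains in YAG medium after 24 hrs at 35° C. Spore inocula 1-2×10^4 cfu/ml; yeast 1-2×10^3 cfu/ml.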

[1] = test system: Aspergillus fumigatus AF293; experiment: MIC, YAG medium, Aspergillus fumigatus AF293; assay type: cell-based; conditions: Aspergillus fumigatus, AF293; YAG medium; read-out: MIC A Fum. 293
Procedure, shortened: as §1

[2] = test system: Aspergillus fumigatus AF210; experiment: MIC, YAG medium, Aspergillus fumigatus AF210; assay type: cell-based; conditions: Aspergillus fumigatus, AF210; YAG medium; read-out: MIC A Fum. 210
Procedure, shortened: as §1

Aspergillus terreus = experiment: MIC, YAG medium, Aspergillus terreus; assay type: cell-based; conditions: Aspergillus terreus; YAG medium; read-out: MIC A Terreus 4
Procedure, shortened: as §1

Aspergillus flavus = experiment: MIC, YAG medium, Aspergillus flavus; assay type: cell-based; conditions: Aspergillus flavus; YAG medium; read-out: MIC A Flavus 01
Procedure, shortened: as §1

Aspergillus niger = experiment: MIC, YAG medium, Aspergillus niger; assay type: cell-based; conditions: Aspergillus niger; YAG medium; read-out: MIC A Niger 1
Procedure, shortened: as §1

Structure (SMILES) | MIC (A Terreus 49) | MIC [1] | MIC [2] | MIC (Aspergillus terreus) | MIC (Aspergillus flavus) | MIC (Aspergillus niger)
COc1ccc(NC(=O)C(=O)c2c(-c3ccccc3C)cc3ccccn23)cc1 [Example 232, N-(4-Methoxy-phenyl)-2-oxo-2-(2-o-tolyl-indolizin-3-yl)-acetamide] | 0.015 µg/mL (≈ 0.039 µM) | 0.062 µg/mL (≈ 0.161 µM) | 0.062 µg/mL (≈ 0.161 µM) | 0.031 µg/mL (≈ 0.0806 µM) | 0.015 µg/mL (≈ 0.039 µM) | 0.008 µg/mL (≈ 0.0208 µM)
COc1ccc(NC(=O)C(=O)c2c(-c3cccc(C)c3)cc3ccccn23)cc1 [Example 233, N-(4-Methoxy-phenyl)-2-oxo-2-(2-m-tolyl-indolizin-3-yl)-acetamide] | 0.004 µg/mL (≈ 0.0104 µM) | 0.25 µg/mL (≈ 0.65 µM) | 0.25 µg/mL (≈ 0.65 µM) | 0.008 µg/mL (≈ 0.0208 µM) | 0.004 µg/mL (≈ 0.0104 µM) | 0.06 µg/mL (≈ 0.156 µM)
COc1ccc(NC(=O)C(=O)c2c(-c3cccc(Cl)c3)cc3ccccn23)cc1 [Example 235, 2-[2-(3-Chloro-phenyl)-indolizin-3-yl]-N-(4-methoxy-phenyl)-2-oxo-acetamide] | 0.008 µg/mL (≈ 0.0198 µM) | 0.5 µg/mL (≈ 1.24 µM) | 0.5 µg/mL (≈ 1.24 µM) | 0.015 µg/mL (≈ 0.0371 µM) | 0.031 µg/mL (≈ 0.0766 µM) | 0.12 µg/mL (≈ 0.296 µM)
COc1ccc(NC(=O)C(=O)c2c(-c3ccc(C)cc3)cc3ccccn23)cc1 [Example 238, N-(4-Methoxy-phenyl)-2-oxo-2-(2-p-tolyl-indolizin-3-yl)-acetamide] | 0.008 µg/mL (≈ 0.0208 µM) | 0.5 µg/mL (≈ 1.3 µM) | 0.25 µg/mL (≈ 0.65 µM) | 0.015 µg/mL (≈ 0.039 µM) | 0.015 µg/mL (≈ 0.039 µM) | 0.015 µg/mL (≈ 0.039 µM)
O=C(Nc1ccc(F)cc1F)C(=O)c1c(-c2cccc(F)c2)cc2ccccn12 [Example 244, N-(2,4-Difluoro-phenyl)-2-[2-(3-fluoro-phenyl)-indolizin-3-yl]-2-oxo-acetamide] | 0.1 µg/mL (≈ 0.254 µM) | > 50 µg/mL | > 50 µg/mL | 0.2 µg/mL (≈ 0.507 µM) | 0.2 µg/mL (≈ 0.507 µM) | 0.05 µg/mL (≈ 0.127 µM)
N#Cc1cccc(-c2cc3ccccn3c2C(=O)C(=O)Nc2ccc(F)cc2F)c1 [Example 245, 2-[2-(3-Cyano-phenyl)-indolizin-3-yl]-N-(2,4-difluoro-phenyl)-2-oxo-acetamide] | 0.8 µg/mL (≈ 1.99 µM) | 6.25 µg/mL (≈ 15.6 µM) | 6.25 µg/mL (≈ 15.6 µM) | 0.4 µg/mL (≈ 0.997 µM) | 0.8 µg/mL (≈ 1.99 µM) | 0.4 µg/mL (≈ 0.997 µM)
Cc1ccc(Cl)cc1NC(=O)C(=O)c1c(-c2ccccc2)cc2ccccn12 [Example 246, N-(5-Chloro-2-methyl-phenyl)-2-oxo-2-(2-phenyl-indolizin-3-yl)-acetamide] | 0.004 µg/mL (≈ 0.0103 µM) | 0.12 µg/mL (≈ 0.309 µM) | 0.25 µg/mL (≈ 0.643 µM) | 0.008 µg/mL (≈ 0.0206 µM) | 0.031 µg/mL (≈ 0.0797 µM) | 0.062 µg/mL (≈ 0.159 µM)
C=CCOc1cc(F)ccc1NC(=O)C(=O)c1c(-c2ccccc2)cc2ccccn12 [Example 247, N-(2-Allyloxy-4-fluoro-phenyl)-2-oxo-2-(2-phenyl-indolizin-3-yl)-acetamide] | 0.2 µg/mL (≈ 0.483 µM) | 3.1 µg/mL (≈ 7.48 µM) | 3.1 µg/mL (≈ 7.48 µM) | 0.4 µg/mL (≈ 0.965 µM) | 1.6 µg/mL (≈ 3.86 µM) | 3.1 µg/mL (≈ 7.48 µM)
CCOC(=O)C(C)(C)NC(=O)C(=O)c1c(-c2ccccc2)cc2ccccn12 [Example 248, 2-Methyl-2-[2-oxo-2-(2-phenyl-indolizin-3-yl)-acetylamino]-propionic acid ethyl ester] | 6.25 µg/mL (≈ 16.5 µM) | 12.5 µg/mL (≈ 33 µM) | 12.5 µg/mL (≈ 33 µM) | 6.25 µg/mL (≈ 16.5 µM) | > 50 µg/mL | 0.4 µg/mL (≈ 1.06 µM)
CCOC(=O)C(C)(Cc1ccccc1)NC(=O)C(=O)c1c(-c2ccccc2)cc2ccccn12 (stereo not drawn) [Example 249, 2-Methyl-2-[2-oxo-2-(2-phenyl-indolizin-3-yl)-acetylamino]-3-phenyl-propionic acid ethyl ester] | 1.6 µg/mL (≈ 3.52 µM) | 0.8 µg/mL (≈ 1.76 µM) | 1.6 µg/mL (≈ 3.52 µM) | 1.6 µg/mL (≈ 3.52 µM) | > 50 µg/mL | 6.25 µg/mL (≈ 13.8 µM)
O=C(Nc1ccc(N2CCOCC2)cc1)C(=O)c1c(-c2ccccc2)cc2ccccn12 [Example 251, N-(4-Morpholin-4-yl-phenyl)-2-oxo-2-(2-phenyl-indolizin-3-yl)-acetamide] | 0.015 µg/mL (≈ 0.0353 µM) | 0.12 µg/mL (≈ 0.282 µM) | 0.12 µg/mL (≈ 0.282 µM) | 0.031 µg/mL (≈ 0.0729 µM) | 0.062 µg/mL (≈ 0.146 µM) | 0.062 µg/mL (≈ 0.146 µM)
CC(C)c1ccc(NC(=O)C(=O)c2c(-c3ccccc3)cc3ccccn23)cc1 [Example 252, N-(4-Isopropyl-phenyl)-2-oxo-2-(2-phenyl-indolizin-3-yl)-acetamide] | 0.002 µg/mL (≈ 0.00523 µM) | 0.008 µg/mL (≈ 0.0209 µM) | 0.062 µg/mL (≈ 0.162 µM) | 0.008 µg/mL (≈ 0.0209 µM) | 0.015 µg/mL (≈ 0.0392 µM) | 0.004 µg/mL (≈ 0.0105 µM)
CN(C)c1ccc(NC(=O)C(=O)c2c(-c3cccnc3)cc3ccccn23)cn1 [Example 253, N-(6-Dimethylamino-pyridin-3-yl)-2-oxo-2-(2-pyridin-3-yl-indolizin-3-yl)-acetamide] | 12.5 µg/mL (≈ 32.4 µM) | > 50 µg/mL | > 50 µg/mL | 12.5 µg/mL (≈ 32.4 µM) | 25 µg/mL (≈ 64.9 µM) | > 50 µg/mL
C=CCc1c(F)ccc(NC(=O)C(=O)c2c(-c3ccccc3)cc3ccccn23)c1OC [Example 254, N-(3-Allyl-4-fluoro-2-methoxy-phenyl)-2-oxo-2-(2-phenyl-indolizin-3-yl)-acetamide] | 0.2 µg/mL (≈ 0.467 µM) | 1.6 µg/mL (≈ 3.73 µM) | 0.8 µg/mL (≈ 1.87 µM) | 0.1 µg/mL (≈ 0.233 µM) | 0.4 µg/mL (≈ 0.934 µM) | 0.4 µg/mL (≈ 0.934 µM)
CC(O)c1ccc(NC(=O)C(=O)c2c(-c3ccccc3)cc3ccccn23)cc1 (stereo not drawn) [Example 255, N-[4-(1-Hydroxy-ethyl)-phenyl]-2-oxo-2-(2-phenyl-indolizin-3-yl)-acetamide] | 0.1 µg/mL (≈ 0.26 µM) | 1.6 µg/mL (≈ 4.16 µM) | 0.8 µg/mL (≈ 2.08 µM) | 0.2 µg/mL (≈ 0.52 µM) | 0.2 µg/mL (≈ 0.52 µM) | 0.4 µg/mL (≈ 1.04 µM)
Cn1ccc2cc(NC(=O)C(=O)c3c(-c4ccccc4)cc4ccccn34)ccc21 [Example 256, N-(1-Methyl-1H-indol-5-yl)-2-oxo-2-(2-phenyl-indolizin-3-yl)-acetamide] | 0.001 µg/mL (≈ 0.00254 µM) | 0.015 µg/mL (≈ 0.0381 µM) | 0.015 µg/mL (≈ 0.0381 µM) | 0.001 µg/mL (≈ 0.00254 µM) | 0.04 µg/mL (≈ 0.102 µM) | 0.03 µg/mL (≈ 0.0762 µM)
CS(=O)(=O)c1ccc(NC(=O)C(=O)c2c(-c3ccccc3)cc3ccccn23)cc1 [Example 257, N-(4-Methanesulfonyl-phenyl)-2-oxo-2-(2-phenyl-indolizin-3-yl)-acetamide] | 0.4 µg/mL (≈ 0.956 µM) | 6.25 µg/mL (≈ 14.9 µM) | 3.1 µg/mL (≈ 7.41 µM) | 0.4 µg/mL (≈ 0.956 µM) | 0.4 µg/mL (≈ 0.956 µM) | 0.8 µg/mL (≈ 1.91 µM)
O=C(Nc1ccc(N2CCSCC2)cc1)C(=O)c1c(-c2ccccc2)cc2ccccn12 [Example 258, 2-Oxo-2-(2-phenyl-indolizin-3-yl)-N-(4-thiomorpholin-4-yl-phenyl)-acetamide] | 0.008 µg/mL (≈ 0.0181 µM) | 0.03 µg/mL (≈ 0.0679 µM) | 0.015 µg/mL (≈ 0.034 µM) | 0.008 µg/mL (≈ 0.0181 µM) | 0.015 µg/mL (≈ 0.034 µM) | 0.03 µg/mL (≈ 0.0679 µM)
Cc1ccc(NC(=O)C(=O)c2c(-c3ccccc3)cc3ccccn23)c(C)c1C [Example 259, 2-Oxo-2-(2-phenyl-indolizin-3-yl)-N-(2,3,4-trimethyl-phenyl)-acetamide] | 0.004 µg/mL (≈ 0.0105 µM) | 0.06 µg/mL (≈ 0.157 µM) | 0.06 µg/mL (≈ 0.157 µM) | 0.002 µg/mL (≈ 0.00523 µM) | 0.015 µg/mL (≈ 0.0392 µM) | 0.03 µg/mL (≈ 0.0784 µM)
O=C(Nc1ccc(N2CCCC2)cc1)C(=O)c1c(-c2ccccc2)cc2ccccn12 [Example 260, 2-Oxo-2-(2-phenyl-indolizin-3-yl)-N-(4-pyrrolidin-1-yl-phenyl)-acetamide] | 0.008 µg/mL (≈ 0.0195 µM) | 0.015 µg/mL (≈ 0.0366 µM) | 0.03 µg/mL (≈ 0.0733 µM) | 0.008 µg/mL (≈ 0.0195 µM) | 0.008 µg/mL (≈ 0.0195 µM) | 0.015 µg/mL (≈ 0.0366 µM)
CN1CCc2cc(NC(=O)C(=O)c3c(-c4ccccc4)cc4ccccn34)ccc21 [Example 261, N-(1-Methyl-2,3-dihydro-1H-indol-5-yl)-2-oxo-2-(2-phenyl-indolizin-3-yl)-acetamide] | 0.001 µg/mL (≈ 0.00253 µM) | 0.03 µg/mL (≈ 0.0759 µM) | 0.03 µg/mL (≈ 0.0759 µM) | 0.004 µg/mL (≈ 0.0101 µM) | 0.004 µg/mL (≈ 0.0101 µM) | 0.06 µg/mL (≈ 0.152 µM)

Source: patent publication US8486962B2, “Antifungal agents” (F2G Ltd., priority 2005, dated 2013)
